Reference: ChEMBL document CHEMBL4665834 (J Med Chem, 2020)

What was measured:
Homo sapiens [1] = organism: Homo sapiens; test: Selectivity ratio of IC50 for displacement of [3H]PGD2 from full-length recombinant human DP1 receptor expressed in Chem-1 cell membranes to IC50 for displacement of [3H]PGF2alpha from full-length recombinant human FP receptor expressed in HEK293 cell membranes
Cytochrome P450 3A4 = Cytochrome P450 3A4 (Homo sapiens, UniProt P08684); test: Inhibition of CYP3A4 in human liver microsomes using midazolam as substrate incubated for 10 mins in presence of NADPH generating system by LC-MS/MS analysis
Cytochrome P450 3A4, sequence (P08684 whole entry): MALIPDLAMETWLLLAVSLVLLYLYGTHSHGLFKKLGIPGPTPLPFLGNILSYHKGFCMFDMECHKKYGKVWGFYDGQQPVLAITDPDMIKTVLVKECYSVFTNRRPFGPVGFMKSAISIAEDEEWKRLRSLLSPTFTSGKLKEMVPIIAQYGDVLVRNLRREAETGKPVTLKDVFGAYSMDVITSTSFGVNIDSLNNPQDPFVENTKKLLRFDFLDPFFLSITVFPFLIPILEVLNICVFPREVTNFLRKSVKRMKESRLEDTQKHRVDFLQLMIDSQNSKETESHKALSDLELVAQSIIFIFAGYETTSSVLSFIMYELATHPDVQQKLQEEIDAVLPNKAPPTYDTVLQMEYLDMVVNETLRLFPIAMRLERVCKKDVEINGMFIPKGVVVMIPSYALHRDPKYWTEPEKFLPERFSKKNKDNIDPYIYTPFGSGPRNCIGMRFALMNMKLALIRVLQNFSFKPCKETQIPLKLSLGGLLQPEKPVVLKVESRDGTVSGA

Homo sapiens [2] = organism: Homo sapiens; test: Selectivity ratio of IC50 for displacement of [3H]prostaglandin E2 from full-length recombinant human EP1 receptor expressed in HEK293 cell membranes to IC50 for displacement of [3H]PGF2alpha from full-length recombinant human FP receptor expressed in HEK293 cell membranes
Homo sapiens [3] = organism: Homo sapiens; test: Selectivity ratio of IC50 for displacement of [3H]prostaglandin E2 from full-length recombinant human EP4 receptor expressed in Chem-1 cell membranes to IC50 for displacement of [3H]PGF2alpha from full-length recombinant human FP receptor expressed in HEK293 cell membranes
Homo sapiens [4] = organism: Homo sapiens; test: Selectivity ratio of IC50 for displacement of [3H]prostaglandin E2 from full-length recombinant human EP2 receptor expressed in HEK293 cell membranes to IC50 for displacement of [3H]PGF2alpha from full-length recombinant human FP receptor expressed in HEK293 cell membranes
Homo sapiens [5] = organism: Homo sapiens; test: Selectivity ratio of IC50 for displacement of [3H]PGD2 from full-length recombinant human IP receptor expressed in HEK293 cell membranes to IC50 for displacement of [3H]PGF2alpha from full-length recombinant human FP receptor expressed in HEK293 cell membranes
[6] = Lipophilicity, log D of compound at pH 7.5 by HPLC analysis; conditions: buffer
Homo sapiens [7] = organism: Homo sapiens; test: Selectivity ratio of IC50 for displacement of [3H]prostaglandin E2 from full-length recombinant human EP3 receptor expressed in HEK293 cell membranes to IC50 for displacement of [3H]PGF2alpha from full-length recombinant human FP receptor expressed in HEK293 cell membranes
[8] = Clearance in Wistar rat at 0.3 to 1 mg/kg, iv administered as bolus dose or 15 mins infusion by LC-MS/MS analysis; format: ADME, organism-based; conditions: in vivo, dose 0.3-1 mg/kg; for clearance: Wistar; for CL: 0.25 h
[9] = target: Prostaglandin F2-alpha receptor (Homo sapiens, UniProt P43088); test: Antagonist activity at human FPR expressed in human Chem-1 cells assessed as inhibition of PGF2alpha-induced calcium flux preincubated for 10 mins followed by PGF2alpha stimulation and measured for 120 secs by fluo-8 AM dye based fluorescence assay; format: functional, cell-based
Prostaglandin F2-alpha receptor, sequence (P43088 whole entry): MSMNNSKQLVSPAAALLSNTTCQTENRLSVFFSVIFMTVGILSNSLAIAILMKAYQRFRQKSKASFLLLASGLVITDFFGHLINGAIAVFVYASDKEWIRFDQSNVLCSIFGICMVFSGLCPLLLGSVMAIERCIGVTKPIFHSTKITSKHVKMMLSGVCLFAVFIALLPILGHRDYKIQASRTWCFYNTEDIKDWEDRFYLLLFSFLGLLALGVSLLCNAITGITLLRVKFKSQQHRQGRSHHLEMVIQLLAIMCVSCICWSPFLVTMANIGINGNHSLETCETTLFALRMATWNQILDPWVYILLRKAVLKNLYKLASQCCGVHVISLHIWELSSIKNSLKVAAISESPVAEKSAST

[10] = Maximum oral bioavailability in rat hepatocytes based well stirred liver model at 1 uM measured after 2 to 90 mins by LC-MS/MS analysis; format: ADME, Hepatocyte; conditions: time 2-90 min, read-out: Fmax

Structure (SMILES) | Ratio IC50 (Homo sapiens [1]) | IC50 (Cytochrome P450 3A4) [µM] | Ratio IC50 (Homo sapiens [2]) | Ratio IC50 (Homo sapiens [3]) | Ratio IC50 (Homo sapiens [4]) | Ratio IC50 (Homo sapiens [5]) | logD [6] | Ratio IC50 (Homo sapiens [7]) | clearance [8] [mL/min/kg] | also measured
Cc1c(C(=O)Nc2ccc(C(=O)O)cc2F)c2cc(Br)ccc2[n+]([O-])c1-c1ccccc1 | > 91 | > 20 | > 91 | 53 | > 91 | > 91 | 1.4 | > 91 |  | 
O=C(O)c1ccc(NC(=O)c2c(Cl)c(-c3ccccc3)nc3ccc(Br)cc23)c(F)c1 | > 38 |  | > 38 | 14 | > 38 | > 38 | 2.1 | > 38 |  | 
Cc1c(-c2ccccc2)nc2ccc(I)cc2c1C(=O)Nc1ccc(C(=O)O)cc1F | > 86 | > 20 | > 86 | 15 | > 86 | > 86 | 2 | > 86 | 21.7 | 
Cc1c(N2CCCC2)nc2ccc(Br)cc2c1C(=O)NC[C@@H](CCC(=O)O)c1ccccc1Cl |  | > 20 |  |  |  |  | 2.3 |  | 20 | 
Cc1c(-c2ccccc2)nc2ccc(Cl)cc2c1C(=O)Nc1ccc(C(=O)O)cc1F |  | > 20 |  | 17 |  |  | 1.9 |  |  | 
Cc1c(-c2ccccc2)nc2ccc(Br)cc2c1C(=O)N(C)CCc1ccccn1 |  |  |  |  |  |  |  |  |  | IC50 [9]: 15 µM
Cc1c(-c2ccccc2)nc2ccc(C(C)(C)C)cc2c1C(=O)Nc1ccc(C(=O)O)cc1F | > 87 | > 20 | > 87 | 170 | > 87 | > 87 | 2.1 | > 87 | 20 | 
Cc1c(-c2ccccc2)nc2ccc(Br)cc2c1CNc1ccc(C(=O)O)cc1F |  |  |  |  |  |  |  |  | 11.7 | IC50 [9]: 0.025 µM
O=C(O)c1ccc(NC(=O)c2c(C3CC3)c(-c3ccccc3)nc3ccc(Br)cc23)c(F)c1 |  |  |  | 8.8 |  |  | 2.1 |  |  | 
Cc1c(-c2ccccc2)nc2ccc(Br)cc2c1C(=O)Nc1ccc(C(=O)O)cc1 | > 110 | > 20 | > 110 | 10 | > 110 | > 110 | 1.9 | > 110 | 23.3 | IC50 [9]: 0.15 µM
Cc1c(-c2ccccc2)nc2ccc(Br)cc2c1C(=O)NCCc1ccccn1 |  |  |  |  |  |  |  |  |  | IC50 [9]: 0.2 µM; Fh at 1 µM [10]: 7%
Cc1c(-c2ccccc2)nc2ccc(C(F)(F)F)cc2c1C(=O)Nc1ccc(C(=O)O)cc1F | > 64 | > 20 | > 64 | 13 | > 64 | > 64 | 2.1 | > 64 | 40 | 
Cc1c(-c2ccccc2)cc2ccc(Br)cc2c1C(=O)Nc1ccc(C(=O)O)cc1F |  |  |  |  |  |  |  |  | 10 | IC50 [9]: 0.013 µM
Cc1c(-c2ccccc2)nc2ccc(Br)cc2c1COc1ccc(C(=O)O)cc1F |  | > 20 |  | 20 |  |  | 2.2 |  | 20 | IC50 [9]: 0.25 µM
Cc1c(-c2ccccc2)nc2ccc(Br)cc2c1C(=O)Nc1ccc(C(=O)O)cc1F | > 76 |  | > 76 | 16 | > 76 | > 76 |  | > 76 |  | 
Cc1c(N2CC(F)(F)C2)nc2ccc(Br)cc2c1C(=O)NCC(CCC(=O)O)c1ccccc1Cl (racemic) |  | > 20 |  | > 220 |  |  | 2.6 |  |  | 
Cc1c(-c2ccccc2)nc2ccc(Br)cc2c1C(=O)NCC(C)c1ccccn1 (racemic) |  |  |  |  |  |  | 3.1 |  |  | IC50 [9]: 0.19 µM; Fh at 1 µM [10]: 24%
COc1ccc(C(CNC(=O)c2c(C)c(-c3ccccc3)nc3ccc(Br)cc23)CC(=O)O)cc1 (racemic) |  | > 20 |  | > 63 |  |  | 1.9 |  |  | IC50 [9]: 1.1 µM
COc1cccc(C(CNC(=O)c2c(C)c(-c3ccccc3)nc3ccc(Br)cc23)CC(=O)O)c1 (racemic) |  | > 20 |  |  |  |  | 2 |  |  | 
Cc1c(-c2ccccc2)nc2ccc(Br)cc2c1C(=O)NC(C)Cc1ccccn1 (racemic) |  |  |  |  |  |  |  |  |  | IC50 [9]: 0.5 µM
CCC1CCCN(c2nc3ccc(Br)cc3c(C(=O)NCC(CCC(=O)O)c3ccccc3Cl)c2C)C1 (single isomer, unassigned; 52) [listing 1 of 2 here] |  | 5 |  |  |  |  | 3.3 |  |  | IC50 [9]: 0.00053 µM; CL [8]: 48.3 mL/min/kg

Structure (SMILES) | Ratio IC50 (Homo sapiens [1]) | IC50 (Cytochrome P450 3A4) [µM] | Ratio IC50 (Homo sapiens [2]) | Ratio IC50 (Homo sapiens [3]) | Ratio IC50 (Homo sapiens [4]) | Ratio IC50 (Homo sapiens [5]) | logD [6] | Ratio IC50 (Homo sapiens [7]) | clearance [8] [mL/min/kg] | also measured
CCC1CCCN(c2nc3ccc(Br)cc3c(C(=O)NCC(CCC(=O)O)c3ccccc3Cl)c2C)C1 (single isomer, unassigned; 52) [listing 2 of 2 here] | > 180 |  | > 180 | > 180 | > 180 | > 180 |  | > 180 |  | 
CCC1CCCN(c2nc3ccc(Br)cc3c(C(=O)NCC(CCC(=O)O)c3ccccc3Cl)c2C)C1 (single isomer, unassigned; 53) [listing 1 of 2 here] |  | 10 |  |  |  |  |  |  |  | CL [8]: 21.7 mL/min/kg
CCC1CCCN(c2nc3ccc(Br)cc3c(C(=O)NCC(CCC(=O)O)c3ccccc3Cl)c2C)C1 (single isomer, unassigned; 53) [listing 2 of 2 here] | > 580 |  | > 580 | > 580 | > 580 | > 580 |  | > 580 |  | 
CCC1CCCN(c2nc3ccc(Br)cc3c(C(=O)NCC(CCC(=O)O)c3ccccc3Cl)c2C)C1 (single isomer, unassigned; 54) [listing 1 of 2 here] |  | 2 |  |  |  |  |  |  |  | 
CCC1CCCN(c2nc3ccc(Br)cc3c(C(=O)NCC(CCC(=O)O)c3ccccc3Cl)c2C)C1 (single isomer, unassigned; 54) [listing 2 of 2 here] | > 180 |  | > 180 | > 180 | > 180 | > 180 |  | > 180 |  | 
CCC1CCCN(c2nc3ccc(Br)cc3c(C(=O)NCC(CCC(=O)O)c3ccccc3Cl)c2C)C1 (single isomer, unassigned; 55) [listing 1 of 2 here] |  | 5 |  |  |  |  |  |  |  | IC50 [9]: 0.0076 µM
CCC1CCCN(c2nc3ccc(Br)cc3c(C(=O)NCC(CCC(=O)O)c3ccccc3Cl)c2C)C1 (single isomer, unassigned; 55) [listing 2 of 2 here] | > 300 |  | > 300 | > 300 | > 300 | > 300 |  | > 300 |  | 
Cc1c(-c2ccccc2)nc2ccc(Br)cc2c1C(=O)NCC(CCC(=O)O)c1c(F)ccc(F)c1Cl (single isomer, unassigned; (+)) |  | > 20 |  |  |  |  | 2.2 |  |  | 
Cc1c(-c2ccccc2)nc2ccc(Br)cc2c1C(=O)NCC(CCCC(=O)O)c1ccccc1Cl (single isomer, unassigned; (+)) |  | 20 |  |  |  |  | 2.3 |  |  | 
COc1ccccc1C(CNC(=O)c1c(C)c(-c2ccccc2)nc2ccc(Br)cc12)CC(=O)O (single isomer, unassigned; (+)) |  | > 20 |  |  |  |  | 2 |  | 46.7 | 
COc1ccccc1C(C)CNC(=O)c1c(C)c(-c2ccccc2)nc2ccc(Br)cc12 (single isomer, unassigned; (+)) |  |  |  |  |  |  |  |  |  | IC50 [9]: 0.25 µM
Cc1c(N2CCCCCC2)nc2ccc(Br)cc2c1C(=O)NCC(CCC(=O)O)c1ccccc1Cl (single isomer, unassigned; (+)) |  |  |  |  |  |  |  |  | 21.7 | 
Cc1c(-c2ccccc2)nc2ccc(Br)cc2c1C(=O)NCC(CCC(=O)O)c1ccccc1Cl (single isomer, unassigned; (+)) | > 6300 |  | > 6300 | > 6300 | > 6300 | > 6300 |  | > 6300 |  | 
Cc1c(-c2ccccc2)nc2ccc(Br)cc2c1C(=O)NCC(CCC(=O)O)c1ccccc1Cl (single isomer, unassigned; (-)) [listing 1 of 2 here] |  |  |  |  |  |  |  |  |  | CL [8]: 50 mL/min/kg
Cc1c(-c2ccccc2)nc2ccc(Br)cc2c1C(=O)NCC(CCC(=O)O)c1c(F)ccc(F)c1Cl (single isomer, unassigned; (-)) |  | 5 |  |  |  |  |  |  | 43.3 | 
Cc1c(N2CCCCC2)nc2ccc(Br)cc2c1C(=O)NCC(CCC(=O)O)c1c(F)ccc(F)c1Cl (single isomer, unassigned; (-)) |  |  |  |  |  |  |  |  | 38.3 | 
Cc1c(N2CCCCC2)nc2ccc(Br)cc2c1C(=O)NCC(CCC(=O)O)c1ccccc1Cl (single isomer, unassigned; (-)) |  |  |  |  |  |  |  |  |  | CL [8]: 25 mL/min/kg
Cc1c(-c2ccccc2)nc2ccc(Br)cc2c1C(=O)NCC(CCC(=O)O)c1ccccc1Cl (single isomer, unassigned; (-)) [listing 2 of 2 here] | > 8200 |  | > 8200 | > 8200 | > 8200 | > 8200 |  | > 8200 |  | 
Cc1c(-c2ccccc2)nc2ccc(Br)cc2c1C(=O)NCC(CC(=O)O)c1ccccc1Cl (stereo in doubt; 34) |  | 13 |  |  |  |  |  |  |  | CL [8]: 18.3 mL/min/kg
Cc1c(N2CCCCC2)nc2ccc(Br)cc2c1C(=O)NCC(CCC(=O)O)c1ccccc1Cl (stereo in doubt; 48) |  |  |  |  |  |  |  |  | 16.7 | 
